Reference: ChEMBL document CHEMBL1142605, “Stemoninines from the roots of Stemona tuberosa” (2006)

How the values were obtained:
Cavia porcellus [1] = experiment: Antitussive activity in ip dosed Dunkin-Hartley guinea pig assessed as inhibition of citric acid-induced cough administered 30 mins before citric acid challenge; format: functional
Cavia porcellus [2] = experiment: Antitussive activity in Dunkin-Hartley guinea pig assessed as inhibition of citric acid-induced cough at 100 mg/kg, ip administered 30 mins before citric acid challenge; format: functional; conditions: route intraperitoneal

SMILES | ED50 (Cavia porcellus [1]) | inhibition in vivo at 100 mg/kg (Cavia porcellus [2]) | Activity (Cavia porcellus [1])
CC[C@@H]1[C@H]2CCCCN3[C@H]2[C@@H](C[C@H]3[C@@H]2C[C@H](C)C(=O)O2)[C@H]2[C@@H]1OC(=O)[C@H]2C [NEOTUBEROSTEMONINE] | 66 µmol/kg |  | 
CC[C@H]1[C@@H]2c3ccc([C@@H]4C[C@H](C)C(=O)O4)n3CCC[C@H]2O[C@]12C=C(C)C(=O)O2 [BISDEHYDROSTEMONININE] | 188 µmol/kg | 90% | Dose-dependent effect
